{"source": "patent US20050250837A1", "about": "“Use of C-Raf inhibitors for the treatment of neurodegenerative diseases” (priority 2002, published 2005)", "key": {"[1]": {"system": "cerebellar granule neurons", "experiment": "LK-induced apoptosis of cultured cerebellar granule neurons (MTT viability)", "type": "cell-based, rat", "details": "for effect of MEK inhibitor on neuroprotection by GW5074: LK + 1 uM GW5074 with 40 uM PD98059 or 10 uM U0126", "experimental": "Cultured cerebellar granule neurons undergo apoptosis when switched from HK to medium containing LK (D'Mello et al., 1993). […] Neuronal cultures were switched to medium containing LK, or LK medium containing different doses of GW5074. Cell viability was quantified 24 hours later. Control cultures received HK medium. […] Protection against LK-induced apoptosis is maximal at 1 uM.\nGranule neuron cultures were obtained from dissociated cerebella of 7-8 day old rats as described previously (D'Mello et al., 1993). Cells were plated in Basal Eagle's Medium with Earles salts (BME) supplemented with 10% fetal bovine serum (FBS), 25 mM KCl, 2 mM glutamine (Gibco-BRL), and 100 ug/ml gentamycin on dishes coated with poly-L-lys ine in 24-well dishes at a density 1.0×10^6 cells/well, 1.2×10^7 cells/60 mm dish, or 3.0×10^7 cells/100 mm dish. Cytosine arabinofuranoside (10 uM) was added to the culture medium 18-22 hours after plating to prevent replication of non-neuronal cells. Cultures were maintained for 6-7 days prior to experimental treatments. For this, the cells were rinsed once and then maintained in low K^+ medium (serum-free BME medium, 5 mM KCl) or high K^+ medium (serum-free BME medium, supplemented with 20 mM KCl). When used to treat cultures, GW5074 was added at the time when cells were switched to LK medium. Treatment of cultures with pharmacological inhibitors was initiated 15 min prior to rinsing and was maintained through the subsequent incubation in LK or HK medium unless specified otherwise. For MPP+ and methylmercury treatments, 7-8 day old cultures were switched to HK medium containing 200 uM MPP+ or 0.5 uM methylmercury. Viability was assayed 24 hours later.\nNeuronal survival was quantified by the MTT assay as previously described (Koulich et al., 2001). Briefly, the tetrazolium salt MTT [3-(4,5-dimethyl-2-thiazolyl)-2,5-diphenyl-2H tetrazolium bromide] was added to the cultures at a final concentration of 1 mg/ml, and incubation of the culture was continued in the CO2 incubator for a further 30 min at 37° C. The assay was stopped by adding lysis buffer [20% SDS in 50% N,N-dimethyl formamide, pH 4.7]. The absorbance was measured specrophotometrically at 570 nm after an overnight incubation at room temperature. The absorbance of a well without cells was used as background and subtracted. Results obtained using the MTT assays were confirmed using the fluorescein-diacetate method for quantification of cell viability, as previously described (D'Mello et al., 1993). Data are presented as mean+/−standard deviation. Statistical analysis was performed using ANOVA and Student-Neuman-Keuls' test."}, "[2]": {"system": "ERK 1/2", "experiment": "ERK 1/2 phosphorylation in neuronal cultures, Western blot", "type": "cell-based, rat", "details": "LK + 1 uM GW5074 + 40 uM PD98059, 1 hour", "source_text": "Activation of all three Raf proteins results in activation of MEK and ERK.\nSurvival of cerebellar granule neurons can be maintained by BDNF and this effect of BDNF is mediated by the Raf-MEK-ERK signaling pathway (Bonni et al., 1999). The Raf-MEK-ERK pathway is also involved in promoting survival of other neuronal and normeuronal cell types. A potent blocker of the Raf-MEK-ERK pathway is PD98059 (Alessi et al., 1995). In paradigms in which the Raf-MEK-ERK pathway mediates neuronal survival, such as BDNF-treated cerebellar granule neurons, the presence of […] blocks survival (Bonni et al., 1999). […] Lysates from the cultures were subjected to Western blotting using an antibody specific for phospho-ERK.\n(§1) For whole-cell lysates, the culture medium was discarded, the neurons washed twice with ice-cold phosphate-buffered saline (PBS), and lysed in lysis buffer (1% Triton, 20 mM Tris-HCl (pH 7.5), 150 mM NaCl, 1 mM Na2EDTA, 1 mM EGTA, 2.5 mM sodium pyrophosphate, 1 mM beta-glycerophosphate, 1 mM Na3VO4, 1 μg/ml leupeptin and 1× protease inhibitor mixture). Protein concentrations were measured using a Bradford protein assay kit (Bio-Rad), and equivalent amounts of protein were mixed with 6×SDS-PAGE sample buffer. […] After staining with Ponceau S to verify uniformity of protein loads/transfer, the membranes were analyzed for immunoreactivity. […]"}, "[3]": {"molecular_target": "T1, C-Raf (Rattus norvegicus, UniProt P11345)", "T1 construct": "Activities of endogenous C-Raf and B-Raf activity was assayed by measuring the ability of kinase immunoprecipitated from neuronal lysates; endogenous in cells; host or cells: primary rat cerebellar granule neurons", "experiment": "Activity of C-Raf immunoprecipitated from neuronal lysates, GST-MEK substrate, phospho-MEK Western", "type": "cell-based", "experimental": "The immunoprecipitated C-Raf was used in in vitro kinase assays using GST-MEK as substrate and the reaction products subjected to Western analysis. Phosphorylation of MEK was detected using a phospho-MEK antibody. […] After 1 hour of treatment, the cultures were lysed, C-Raf immunoprecipitated from the lysate and used in an in vitro kinase assay with MEK as substrate. The reaction mixture was subjected to Western analysis using a phospho-MEK antibody as probe.\n(Hall-Jackson et al., 1999). […] Lysates from the cultures were used in a kinase reaction with MEK as substrate. […] Phosphorylation of MEK was detected by Western blot analysis using an phospho-MEK antibody and the same blot was reprobed with a C-Raf antibody.\nAfter treatment, cultures of 7-8-day old neurons were washed twice with ice-cold PBS and lysed in ice cold lysis buffer. The lysates were centrifuged for 10 min at 10,000 rpm at 4° C. Protein concentrations of the supernatant were measured using a Bradford protein assay kit (Bio-Rad), and equivalent amounts of protein were incubated overnight with primary antibody (1.0-2 ug) and then for 2 h with 20 ul Protein A/G PLUS-Agarose (Santa Cruz Biotech.) Immunoprecipitates were collected by centrifugation at 2,500 rpm for 5 min at 4° C. and washed three times with lysis buffer, and pellets resuspended in electrophoresis sample buffer (187.5 mM Tris-HCl (pH 6.8 at 25° C.), 6% SDS, 30% glycerol, 150 mM DTT, 0.03% bromophenol blue), boiled for 4 min and subjected to SDS-polyacrylamide gel electrophoresis.\nActivities of endogenous C-Raf and B-Raf activity was assayed by measuring the ability of kinase immunoprecipitated from neuronal lysates to phosphorylate a kinase-dead recombinant GST-MEK1 substrate. Following immunoprecipitation and multiple washes with lysis buffer, lysis buffer supplemented with 350 mM NaCl, and kinase buffer (25 mM HEPES pH 7.4 and 10 mM MgCl2), in vitro kinase assays are performed on the immune complexes using purified recombinant GST-MEK1 K97M protein as a substrate in kinase buffer supplemented with 85 μM ATP for 35 minutes at 30° C. Reactions are stopped by the addition of 3×SDS sample buffer and boiled for five minutes. Proteins are resolved by SDS-PAGE and subjected to Western blotting. The level of phosphorylated MEK is detected by a phospho-MEK antibody."}, "[4]": {"system": "Akt", "experiment": "Akt phosphorylation (Ser473) in neuronal cultures, Western blot", "type": "cell-based, rat", "details": "added to cultures already switched to LK", "experimental": "The best-studied anti-apoptotic pathway in neurons is the PI-3 kinase—Akt signaling pathway (D'Mello et al., 1997; Dudek et al., 1997; Miller et al, 1997a). IGF-1, a potent survival-promotic factor for granule neurons mediates its effect by activating the PI-3 kinase-Akt pathway (Datta et al., 1997; Dudek et al., 1997; D'Mello et al., 1998). […] Switching cerebellar granule neurons from serum-containing HK medium in which they are cultured and allowed to mature, to serum-free LK or HK medium, causes a rapid downregulation of Akt phosphorylation and activity, which can be prevented by IGF-1 (Kumari et al., 2001). […] The same blot was reprobed with an antibody against phospho-Gskβ. Also loaded on the gel were lysates from untreated cultures (maintained in medium containing serum and high K+) and a culture treated for 1 hour with 25 ng/ml IGF-1. […] GSK3βis a proapoptotic molecule that is activated during apoptosis in many neuronal and normeuronal systems. Under survival promoting conditions GSK3β is kept inactivated by phosphorylation, a modification that can be induced by Akt. […] Another proapoptotic molecule that is phosphorylated and inactivated by Akt is the transcription factor, Forkhead (Linseman et al., 2002). […] Switching of neurons to LK medium leads to a rapid downregulation of Akt activity within 2 hours.\nas §1"}, "[5]": {"system": "cerebellar granule neurons", "experiment": "Apoptosis of neurons infected with adenoviral dominant-negative Akt", "type": "cell-based, rat", "details": "LK + 1 uM GW5074 or 25 ng/ml IGF-1", "source_text": "Five day old neuronal cultures were infected with adenoviral vectors expressing either GFP or hemagluttinin (HA)-tagged dominant-negative Akt. […] Infected neurons were detected by positive staining for GFP or HA by immunocytochemistry. The proportion of apoptotic cells (condensed or fragmented nuclei) as a percentage of total infected neurons was quantified following DAPI-staining.\nDnAkt and control recombinant adenovirus expressing green fluorescent protein (Ad-GFP) are propagated in HEK293T cells and purified by cesium chloride density gradient centrifugation. After quantification of titer, virus at an MOI of 10 are used to infect granule neuron cultures 5 days after plating by direct addition to the medium. Treatments are performed 24 hours after addition of virus."}}, "data": [{"compound": "CC(C)=CCC/C(C)=C/CC/C(C)=C/CSc1ccccc1C(=O)O", "note": "[FTS, S-trans, trans-farnesylthiosalicylic acid]", "values": [{"measurement": "effect of Ras antagonist on neuroprotection by GW5074", "setting": "[1]; LK + 1 uM GW5074 + 10 uM FTS, 24 hour", "value": "blocks the neuroprotective effect of GW5074"}]}, {"compound": "COc1cccc(-c2cc(=O)c3ccccc3o2)c1N", "note": "[PD98059, reference compound]", "values": [{"measurement": "effect of MEK inhibitor on neuroprotection by GW5074", "setting": "[1]", "value": "no effect on the neuroprotective effect of GW5074"}, {"measurement": "effect on stimulation of ERK by GW5074", "setting": "[2]", "value": "blocks the stimulation of ERK by GW5074"}]}, {"compound": "N#CC(=C(/N)Sc1ccccc1N)/C(C#N)=C(\\N)Sc1ccccc1N", "note": "[U0126]", "values": [{"measurement": "effect of MEK inhibitor on neuroprotection by GW5074", "setting": "[1]", "value": "failed to reduce survival by GW5074"}]}, {"compound": "Cc1ccc(NC(=O)c2cccc(N(C)C)c2)cc1NC(=O)c1ccc(O)cc1", "note": "[ZM336372, N-[5-(3-Dimethylaminobenzamido)-2-methylphenyl]-4-hydroxybenzamide, reference compound]", "values": [{"measurement": "inhibition of LK-mediated apoptosis", "setting": "[1]; LK medium containing 100 uM ZM336372", "value": "inhibits LK-mediated apoptosis"}, {"measurement": "effect on immunoprecipitated C-Raf when added in vitro", "setting": "[3]; 10 uM ZM336372 added to kinase reaction mixture", "value": "inhibited in vitro by ZM336372"}, {"measurement": "activity of C-Raf immunoprecipitated from treated cultures", "setting": "[3]; LK + 50 uM ZM336372, 1 hour", "value": "elevated activity"}]}, {"compound": "IGF-1: a potent survival-promotic factor for granule neurons", "values": [{"measurement": "de novo Akt activation after downregulation in LK", "setting": "[4]", "value": "robust increase in Akt phosphorylation"}, {"measurement": "effect of dominant-negative Akt on survival promotion", "setting": "[5]", "value": "reduces the survival-promoting effect of IGF-1"}]}]}
